Measurements: US4398029A, “Quinoline carboxylic acid derivatives and process for the preparation” (Kyorin Seiyaku Kabushiki Kaisha, priority 1981, dated 1983)
Values after ≈ are worked out from the molar mass of the structure shown. Counter-ions that a name gives are not always drawn. Like-named read-outs stand apart in the source and are kept apart here.

What was measured:
[1] = tested on: Acinetobacter anitratus IID 876; experiment: Antibacterial activity (MIC), standard agar dilution streak method; type: cell-based; conditions: for MIC: Acinetobacter calcoaceticus, IID876, read-out: Minimum inhibitory concentration
Protocol: (§1) The antibacterial activities of the compounds of the present invention were assayed by the standard agar dilution streak method against Gram-positive and Gram-negative bacteria [Chemotherapy, 22, 1126 (1974)].

[2] = tested on: Staphylococcus aureus 209 p; experiment: as above; type: cell-based; conditions: read-out: Minimum inhibitory concentration
Protocol: as §1

[3] = tested on: Yersinia enterocolitica IID 981; experiment: as above; type: cell-based; conditions: for MIC: read-out: Minimum inhibitory concentration
Protocol: as §1

[4] = tested on: Klebsiella pneumoniae IFO 3512; experiment: as above; type: cell-based; conditions: for MIC: read-out: Minimum inhibitory concentration
Protocol: as §1

[5] = tested on: Pseudomonas aeruginosa V-1; experiment: as above; type: cell-based; conditions: read-out: Minimum inhibitory concentration
Protocol: as §1

[6] = tested on: Salmonella enteritidis IID 604; experiment: as above; type: cell-based; conditions: for MIC: Salmonella enterica, read-out: Minimum inhibitory concentration
Protocol: as §1

[7] = tested on: P. morganii IID 602; experiment: as above; type: cell-based; conditions: for MIC: Morganella morganii, read-out: Minimum inhibitory concentration
Protocol: as §1

[8] = tested on: Escherichia coli NIHJ JC-2; experiment: as above; type: cell-based; conditions: for MIC: read-out: Minimum inhibitory concentration
Protocol: as §1

[9] = tested on: Enterobacter cloacae IID 977; experiment: as above; type: cell-based; conditions: for MIC: read-out: Minimum inhibitory concentration
Protocol: as §1

[10] = tested on: P. mirabilis IID 994; experiment: as above; type: cell-based; conditions: Proteus mirabilis, IID994, read-out: Minimum inhibitory concentration
Protocol: as §1

[11] = tested on: Serratia marcescens IID 618; experiment: as above; type: cell-based; conditions: for MIC: read-out: Minimum inhibitory concentration
Protocol: as §1

[12] = tested on: Bacillus subtilis PCI 219; experiment: as above; type: cell-based; conditions: PCI219; for MIC: read-out: Minimum inhibitory concentration
Protocol: as §1

[13] = tested on: S. epidermidis IID 866; experiment: as above; type: cell-based; conditions: for MIC: Staphylococcus epidermidis, IID866, read-out: Minimum inhibitory concentration
Protocol: as §1

[14] = tested on: Alcaligenes faecalis 0104002; experiment: as above; type: cell-based; conditions: for MIC: read-out: Minimum inhibitory concentration
Protocol: as §1

[15] = tested on: Proteus vulgaris 3167; experiment: as above; type: cell-based; conditions: for MIC: read-out: Minimum inhibitory concentration
Protocol: as §1

[16] = tested on: Citrobacter freundii IID 976; experiment: as above; type: cell-based; conditions: for MIC: read-out: Minimum inhibitory concentration
Protocol: as §1

[17] = tested on: P. aeruginosa IFO 12689; experiment: as above; type: cell-based, Pseudomonas aeruginosa; conditions: for MIC: Pseudomonas aeruginosa, IFO12689, P. aeruginosa IFO 12689, read-out: Minimum inhibitory concentration
Protocol: as §1

[18] = tested on: S. aureus Terajima; experiment: as above; type: cell-based, Staphylococcus aureus; conditions: for MIC: Staphylococcus aureus, read-out: Minimum inhibitory concentration
Protocol: as §1

[19] = tested on: Shigella sonnei IID 969; experiment: microbe, parasite or virus in culture; type: cell-based; conditions: for MIC: read-out: Minimum inhibitory concentration
Protocol: as §1

[20] = tested on: E. coli ATCC 10536; experiment: Antibacterial activity (MIC), standard agar dilution streak method; type: cell-based, Escherichia coli; conditions: for MIC: Escherichia coli, ATCC10536, read-out: Minimum inhibitory concentration
Protocol: as §1

[21] = Yersinia enterocolitica, IID981, Yersinia enterocolitica IID 981
[22] = Klebsiella pneumoniae, IFO3512, Klebsiella pneumoniae IFO 3512
[23] = Escherichia coli, NIHJJC2, Escherichia coli NIHJ JC-2
[24] = Enterobacter cloacae, IID977, Enterobacter cloacae IID 977
[25] = Serratia marcescens, IID618, Serratia marcescens IID 618
[26] = Alcaligenes faecalis, 0104002, Alcaligenes faecalis 0104002
[27] = Proteus vulgaris, 3167, Proteus vulgaris 3167
[28] = Citrobacter freundii, IID976, Citrobacter freundii IID 976
[29] = Shigella sonnei, IID969, Shigella sonnei IID 969
[30] = IID981, Yersinia enterocolitica IID 981
[31] = IFO3512, Klebsiella pneumoniae IFO 3512
[32] = NIHJJC2, Escherichia coli NIHJ JC-2
[33] = IID977, Enterobacter cloacae IID 977
[34] = IID618, Serratia marcescens IID 618
[35] = IID976, Citrobacter freundii IID 976

| SMILES | MIC [1] [µg/mL] | MIC ([2]; Staphylococcus aureus 209 p) [µg/mL] | MIC [3, 21] [µg/mL] | MIC [4, 22] [µg/mL] | MIC ([5]; V1, Pseudomonas aeruginosa V-1) [µg/mL] | MIC ([6]; Salmonella enteritidis IID 604) [µg/mL] | MIC ([7]; IID602, P. morganii IID 602) [µg/mL] | MIC [8, 23] [µg/mL] | MIC ([10]; P. mirabilis IID 994) [µg/mL] | MIC [11, 25] [µg/mL] | MIC ([12]; Bacillus subtilis PCI 219) [µg/mL] | MIC [13] [µg/mL] | MIC [14, 26] [µg/mL] | MIC [15, 27] [µg/mL] | MIC [16, 28] [µg/mL] | MIC [17] [µg/mL] | MIC ([18]; S. aureus Terajima) [µg/mL] | MIC [19, 29] [µg/mL] | MIC [20] [µg/mL] | MIC [9, 33] [µg/mL] | also measured |
| --- | --- | --- | --- | --- | --- | --- | --- | --- | --- | --- | --- | --- | --- | --- | --- | --- | --- | --- | --- | --- | --- |
| CCn1cc(C(=O)O)c(=O)c2cc(F)c(N3CCC(N(C)C)CC3)c(F)c21 [Example 13, 1-Ethyl-6,8-difluoro-1,4-dihydro-7-(4-dimethylamino-1-piperidinyl)-4-oxoquinoline-3-carboxylic acid] | 0.78 (≈ 2.06 µM) | 0.39 (≈ 1.03 µM) | 0.78 (≈ 2.06 µM) | ≤ 0.05 | 12.5 (≈ 32.9 µM) | 0.78 (≈ 2.06 µM) | 1.56 (≈ 4.11 µM) | ≤ 0.05 | 0.39 (≈ 1.03 µM) | 0.78 (≈ 2.06 µM) | 0.1 (≈ 0.264 µM) | 0.39 (≈ 1.03 µM) | 6.25 (≈ 16.5 µM) | 0.1 (≈ 0.264 µM) | 0.39 (≈ 1.03 µM) | 25 (≈ 65.9 µM) | 0.39 (≈ 1.03 µM) | 0.1 (≈ 0.264 µM) | 0.2 (≈ 0.527 µM) | – | MIC [9, 24]: 3.13 µg/mL (≈ 8.25 µM) |
| CCN1CCN(c2c(F)cc3c(=O)c(C(=O)O)cn(CC)c3c2F)CC1 [Example 7, 1-Ethyl-7-(4-ethyl-1-piperazinyl)-6,8-difluoro-1,4-dihydro-4-oxoquinoline-3-carboxylic acid] | 0.39 (≈ 1.07 µM) | – | – | – | – | – | – | – | – | – | – | 0.78 (≈ 2.13 µM) | – | – | – | 6.25 (≈ 17.1 µM) | – | – | 0.1 (≈ 0.274 µM) | 0.39 (≈ 1.07 µM) | MIC ([2]; Staphylococcus aureus, 209P): 0.78 µg/mL (≈ 2.13 µM); MIC [3, 30]: 0.2 µg/mL (≈ 0.547 µM); MIC [4, 31]: ≤ 0.05 µg/mL; MIC ([5]; Pseudomonas aeruginosa, V1): 6.25 µg/mL (≈ 17.1 µM); MIC [6]: 0.39 µg/mL (≈ 1.07 µM); MIC ([7]; IID602): 0.39 µg/mL (≈ 1.07 µM); MIC [8, 32]: ≤ 0.05 µg/mL; MIC [10]: 0.2 µg/mL (≈ 0.547 µM); MIC [11, 34]: 0.39 µg/mL (≈ 1.07 µM); MIC ([12]; Bacillus subtilis): 0.1 µg/mL (≈ 0.274 µM); MIC ([14]; Alcaligenes faecalis 0104002): 1.56 µg/mL (≈ 4.27 µM); MIC ([15]; Proteus vulgaris 3167): ≤ 0.05 µg/mL; MIC [16, 35]: 0.2 µg/mL (≈ 0.547 µM); MIC [18]: 0.78 µg/mL (≈ 2.13 µM); MIC ([19]; IID969, Shigella sonnei IID 969): 0.1 µg/mL (≈ 0.274 µM) |
| CCn1cc(C(=O)O)c(=O)c2cc(F)c(N3CCN(CCO)CC3)c(F)c21 [Example 8, 1-Ethyl-6,8-difluoro-1,4-dihydro-7-[4-(2-hydroxyethyl)-1-piperazinyl]-4-oxoquinoline-3-carboxylic acid] | 1.56 (≈ 4.09 µM) | 0.78 (≈ 2.05 µM) | 0.39 (≈ 1.02 µM) | ≤ 0.05 | 12.5 (≈ 32.8 µM) | 0.78 (≈ 2.05 µM) | 0.78 (≈ 2.05 µM) | ≤ 0.05 | 0.2 (≈ 0.524 µM) | 0.78 (≈ 2.05 µM) | 0.1 (≈ 0.262 µM) | 0.78 (≈ 2.05 µM) | 1.56 (≈ 4.09 µM) | 0.1 (≈ 0.262 µM) | 0.39 (≈ 1.02 µM) | 12.5 (≈ 32.8 µM) | 0.78 (≈ 2.05 µM) | 0.1 (≈ 0.262 µM) | 0.2 (≈ 0.524 µM) | – | MIC [9, 24]: 0.39 µg/mL (≈ 1.02 µM) |
| Cl.O=C(O)c1cn(CCF)c2c(F)c(N3CCNCC3)c(F)cc2c1=O [Example 4, 6,8-Difluoro-1-(2-fluoroethyl)-1,4-dihydro-4-oxo-7-(1-piperazinyl)quinoline-3-carboxylic acid hydrochloride] | 3.13 | 3.13 | – | – | – | 0.05 | 0.2 | – | ≤ 0.05 | – | 0.39 | 1.56 | – | – | – | 1.56 | 3.13 | ≤ 0.05 | 0.1 | ≤ 0.05 | MIC [3, 30]: 0.05 µg/mL; MIC [4, 31]: ≤ 0.05 µg/mL; MIC ([5]; Pseudomonas aeruginosa, V1, Pseudomonas aeruginosa V-1): 6.25 µg/mL; MIC [8, 32]: ≤ 0.05 µg/mL; MIC [11, 34]: 0.39 µg/mL; MIC ([14]; Alcaligenes faecalis 0104002): 3.13 µg/mL; MIC ([15]; Proteus vulgaris 3167): ≤ 0.05 µg/mL; MIC [16, 35]: ≤ 0.05 µg/mL |
| C=CCN1CCN(c2c(F)cc3c(=O)c(C(=O)O)cn(CC)c3c2F)CC1 [Example 6, 7-(4-Allyl-1-piperazinyl)-1-ethyl-6,8-difluoro-1,4-dihydro-4-oxoquinoline-3-carboxylic acid] | 0.78 (≈ 2.07 µM) | 0.78 (≈ 2.07 µM) | 0.78 (≈ 2.07 µM) | ≤ 0.05 | 12.5 (≈ 33.1 µM) | 1.56 (≈ 4.13 µM) | 0.78 (≈ 2.07 µM) | 0.1 (≈ 0.265 µM) | 0.39 (≈ 1.03 µM) | 1.56 (≈ 4.13 µM) | 0.1 (≈ 0.265 µM) | 0.78 (≈ 2.07 µM) | 3.13 (≈ 8.29 µM) | 0.2 (≈ 0.53 µM) | 0.78 (≈ 2.07 µM) | 25 (≈ 66.2 µM) | 0.78 (≈ 2.07 µM) | 0.2 (≈ 0.53 µM) | 0.39 (≈ 1.03 µM) | 1.56 (≈ 4.13 µM) | – |
| CCn1cc(C(=O)O)c(=O)c2cc(F)c(N3CCC(O)CC3)c(F)c21 [Example 16, 1-Ethyl-6,8-difluoro-1,4-dihydro-7-(4-hydroxy-1-piperidinyl)-4-oxoquinoline-3-carboxylic acid silver salt] | – | 0.2 | – | – | 3.13 | – | – | – | 0.39 | – | – | – | – | – | – | – | – | – | – | – | Minimum inhibitory concentration [1]: 1.56 µg/mL; Minimum inhibitory concentration ([3]; Yersinia enterocolitica IID 981): 1.56 µg/mL; Minimum inhibitory concentration ([4]; Klebsiella pneumoniae IFO 3512): 0.10 µg/mL; Minimum inhibitory concentration ([6]; Salmonella enteritidis IID 604): 1.56 µg/mL; Minimum inhibitory concentration ([7]; P. morganii IID 602): 1.56 µg/mL; Minimum inhibitory concentration ([8]; Escherichia coli NIHJ JC-2): 0.78 µg/mL; Minimum inhibitory concentration ([9]; Enterobacter cloacae IID 977): 3.13 µg/mL; Minimum inhibitory concentration ([11]; Serratia marcescens IID 618): 3.13 µg/mL; Minimum inhibitory concentration ([12]; Bacillus subtilis): ≤ 0.05 µg/mL; Minimum inhibitory concentration [13]: 0.39 µg/mL; Minimum inhibitory concentration ([14]; Alcaligenes faecalis 0104002): 3.13 µg/mL; Minimum inhibitory concentration ([15]; Proteus vulgaris 3167): 0.10 µg/mL; Minimum inhibitory concentration ([16]; Citrobacter freundii IID 976): 1.56 µg/mL; Minimum inhibitory concentration ([17]; P. aeruginosa IFO 12689): 25 µg/mL; Minimum inhibitory concentration ([18]; S. aureus Terajima): 0.39 µg/mL; Minimum inhibitory concentration ([19]; Shigella sonnei IID 969): 0.39 µg/mL; Minimum inhibitory concentration [20]: 0.78 µg/mL |
